Test [1] concerns the target T1, récepteur 5-HT₄ (Cavia porcellus, UniProt O70528).
T1 construct: On isole le plexus myentérique à partir de segments d'iléon de 3 cm environ; from tissue; host or cells: guinea pig ileum myenteric plexus (isolated organ bath)
In words: 5-HT response of the electrically stimulated guinea pig ileum myenteric plexus (modified Craig and Clarke test). Further details: species or system cobayes. The conditions noted are these: 30 min incubation, cumulative 5-HT curve 10⁻¹⁰ to 10⁻⁵M. An excerpt:
Dans le but d'évaluer l'activité vis-à-vis du récepteur 5-HT₄, on a soumis les composés de l'invention à l'essai décrit par D.A. Craig et D.E. Clarke. (J. Pharmacol. Exp. Ther., 1990, 252: 1378-86) en lui apportant quelques modifications.
Des cobayes albinos mâles - Charles River Italia - (poids moyen de 500 g) sont sacrifiés par décapitation. On isole le plexus myentérique à partir de segments d'iléon de 3 cm environ, prélevés à 10 cm de la jonction iléooeecale; on place le plexus dans un bain de 20 ml pour organes isolés, contenant une solution de Krebs et de l'acide ascorbique à raison de 1 mg/ml. On maintient la solution, aérée au carboxygène, à la température de 37°C. Le plexus, relié à un transducteur isotonique et soumis à une charge de 0,5 g, est stimulé électriquement de façon supramaximale (fréquence 0,2 Hz, durée […]) par une électrode coaxiale au platine. La préparation est traitée avec de la phénoxybenzamine 10⁻⁷M pendant 30 minutes et, ensuite, lavée plusieurs fois. On réduit le voltage jusqu'à obtenir un effet stimulant de 50% par rapport au maximum et le plexus est ensuite stimulé par la sérotonine à raison de 3·10⁻⁷M. Après lavage et stabilisation, la préparation est prête pour l'essai des composés à activité 5-HT₄. Trois courbes cumulatives de 5-HT sont construites toutes les 60 minutes. […]

The next test has as its target récepteurs 5-HT₄ (Rattus norvegicus, UniProt Q62758). The test is described as follows: 5-HT relaxation of carbachol-contracted rat oesophagus tunica muscularis mucosae (Baxter and Clarke method). The conditions noted are these: rat oesophagus tunica muscularis mucosae contracted by carbachol; result in words only.
The next test deals with T2, récepteur 5-HT₃ (Rattus norvegicus, UniProt P35563).
T2 construct: les sites de liaison 5-HT₃ présents dans le cortex cérébral du rat; from tissue; host or cells: rat cerebral cortex membranes
T2 sequence (P35563 24-483): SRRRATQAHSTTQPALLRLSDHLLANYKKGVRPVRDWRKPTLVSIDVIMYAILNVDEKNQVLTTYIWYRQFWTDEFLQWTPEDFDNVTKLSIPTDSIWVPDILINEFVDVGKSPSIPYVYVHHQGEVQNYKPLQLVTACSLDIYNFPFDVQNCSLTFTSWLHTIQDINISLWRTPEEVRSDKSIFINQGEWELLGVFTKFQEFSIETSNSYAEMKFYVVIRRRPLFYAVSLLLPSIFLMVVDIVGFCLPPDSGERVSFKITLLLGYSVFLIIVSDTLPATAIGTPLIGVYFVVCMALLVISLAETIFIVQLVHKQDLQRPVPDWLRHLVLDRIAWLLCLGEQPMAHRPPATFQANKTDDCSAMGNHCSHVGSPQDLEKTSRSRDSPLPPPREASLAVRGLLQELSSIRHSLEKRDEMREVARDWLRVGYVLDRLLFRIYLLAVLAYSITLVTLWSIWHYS
In words: in vitro binding to 5-HT3 sites of rat cerebral cortex, displacement of [3H] BRL 43694 (granisetron). The conditions noted are these: rat cerebral cortex membranes, labelled ligand 0,5 nM. As to the method:
Afin de tester l'affinité du composé de formule (I) relativement au récepteur 5-HT₃, on a effectué des essais de liaison in vitro en utilisant les sites de liaison 5-HT₃ présents dans le cortex cérébral du rat (G.J. Kilpatrick, B.J. Jones et M.B. Tyers, Nature, 1987; 330: 746-8) et comme ligand marqué le [³H] BRL 43694 (granisetron), un antagoniste des récepteurs 5-HT₃ puissant et spécifique, à la concentration de 0,5 nM.
La préparation des membranes et le test de liaison ont été effectués selon la méthode décrite par Nelson et Thomas (D.R. Nelson et D.R. Thomas, Biochem. Pharmacol., 1989; 38: 1693-5).
Les résultats ont été évalués avec des méthodes d'ajustement ("fitting") non linéaire "Accufit saturation", pour les études de saturation (H.A. Feldman, Analyt. Biochem., 1972; 48: 317-38) et "Accufit competition", pour les études de déplacement (H.A. Feldman, D. Rodbard et D. Levine, Analyt. Biochem., 1972; 45: 530-56).
For orientation: In a radioligand displacement assay an active substance lowers the binding of a labelled ligand.

In test [2] the target is récepteur 5-HT₄ (Homo sapiens, UniProt Q13639). The test is described as follows: activity of the separated cis and trans isomers at the 5-HT4 receptor (test not specified). The conditions noted are these: cis and trans isomers evaluated separately.
Sequence of récepteur 5-HT₄ (Homo sapiens, UniProt Q13639) (Q13639 whole entry): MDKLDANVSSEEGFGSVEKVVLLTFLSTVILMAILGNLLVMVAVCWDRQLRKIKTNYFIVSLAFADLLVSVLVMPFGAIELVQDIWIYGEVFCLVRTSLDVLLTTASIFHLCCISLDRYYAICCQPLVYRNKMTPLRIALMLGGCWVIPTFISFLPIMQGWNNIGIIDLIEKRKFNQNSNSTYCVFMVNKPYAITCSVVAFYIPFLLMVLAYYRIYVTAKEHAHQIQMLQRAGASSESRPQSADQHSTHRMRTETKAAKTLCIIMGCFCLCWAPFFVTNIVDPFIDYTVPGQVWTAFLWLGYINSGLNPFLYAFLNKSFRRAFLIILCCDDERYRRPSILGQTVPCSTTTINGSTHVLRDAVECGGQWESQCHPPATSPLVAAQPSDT

This is an account of results in patent EP0683161A1, “Ester of 4-amino-5-chloro-2-methoxybenzoic acid, process for their preparation and pharmaceutical compositions containing them” (MIDY S.p.A., priority 1994, dated 1995).

T1 sequence (O70528 whole entry): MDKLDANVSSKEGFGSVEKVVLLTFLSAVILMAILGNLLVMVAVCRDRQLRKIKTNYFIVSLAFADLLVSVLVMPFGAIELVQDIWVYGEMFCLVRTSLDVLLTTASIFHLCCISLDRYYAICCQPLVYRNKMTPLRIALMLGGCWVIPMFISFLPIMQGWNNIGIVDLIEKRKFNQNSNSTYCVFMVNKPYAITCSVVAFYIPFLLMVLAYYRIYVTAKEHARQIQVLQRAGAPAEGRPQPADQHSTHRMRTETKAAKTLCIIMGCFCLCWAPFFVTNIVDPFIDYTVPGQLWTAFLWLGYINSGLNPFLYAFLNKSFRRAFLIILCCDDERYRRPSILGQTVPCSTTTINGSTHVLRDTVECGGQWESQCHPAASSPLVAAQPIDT
Sequence of récepteurs 5-HT₄ (Q62758 whole entry): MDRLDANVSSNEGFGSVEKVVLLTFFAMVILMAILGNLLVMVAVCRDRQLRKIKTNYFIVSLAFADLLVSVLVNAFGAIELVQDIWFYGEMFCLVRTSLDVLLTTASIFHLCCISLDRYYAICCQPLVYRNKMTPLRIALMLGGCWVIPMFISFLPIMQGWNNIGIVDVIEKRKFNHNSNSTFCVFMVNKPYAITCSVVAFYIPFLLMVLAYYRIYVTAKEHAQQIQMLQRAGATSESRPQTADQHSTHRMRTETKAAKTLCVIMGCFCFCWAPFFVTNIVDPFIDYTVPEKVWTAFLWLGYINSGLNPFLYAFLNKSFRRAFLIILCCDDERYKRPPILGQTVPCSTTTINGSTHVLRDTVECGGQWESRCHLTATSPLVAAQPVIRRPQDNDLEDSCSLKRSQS
Description for récepteurs 5-HT₄: De plus, toujours pour l'évaluation de l'activité 5-HT₄, on a soumis le composé de formule (I) à un essai sur la tunica muscolaris mucosae de l'oesophage de rat contracté par du carbacol. […] Des rats mâles Crl:CD(SD)BR (Charles River Italia) d'un poids moyen de 250 g sont sacrifiés par dislocation cervicale. Un segment d'oesophage d'environ 2 cm est prélevé au niveau intratoraxique à proximité du diaphragme. La tunica muscolaris mucosae est ensuite isolée et suspendue dans un bain pour organes isolés de 20 ml contenant une solution de Krebs en présence d'hydrocortisone (3·10⁻⁷ M) à 37°C aérée avec 95% O₂ et 5% CO₂. Le tissu est relié à un transducteur isotonique et soumis à une charge de 1 g. La préparation est incubée avec de la pargiline (10⁻⁴ M) pendant 30 minutes et lavée plusieurs fois. Après 60 minutes environ, on contracte le tissu avec des doses cumulatives de carbacol (10⁻⁶, 2·10⁻⁶, 3·10⁻⁶, 4·10⁻⁶ M); de cette manière, on obtient un tonus du tissu stable dans le temps. La 5-HT (10⁻¹⁰ et 10⁻⁶ M), qui est ajoutée cumulativement, relaxe l'oesophage grâce à l'activation des récepteurs 5-HT₄. Trois courbes de carbacol sont construites par préparation toutes les 90 minutes. Après chaque courbe, on procède au moins à 4 lavages. Aussi bien la contraction provoquée par le carbacol que les effets sur celle-ci sont identiques et peuvent être reproduits. […]

As to `COc1cc(N)c(Cl)cc1C(=O)OCCN1CC(C)CC(C)C1` (stereo not shown) [composé de formule (I), ester 3,5-diméthylpipéridinoéthyliquede l'acide 4-amino-5-chloro-2-méthoxybenzoïque], the “IC₅₀, dose qui réduit de 50% la réponse de la 5-HT” value at récepteur 5-HT₄ [1] is given as “quelques nanomoles”. In addition, at récepteurs 5-HT₄, the “pA₂ (antagonism of 5-HT relaxation)” value is “très efficace”. The “déplacement du [³H] BRL 43694” value at récepteur 5-HT₃ is “inactif”.
Turning to `COc1cc(N)c(Cl)cc1C(=O)OCCN1CC(C)CC(C)C1` (stereo not drawn) [isomère cis, isomère cis de l'ester 3,5-diméthylpipéridinoéthyliquede l'acide 4-amino-5-chloro-2-méthoxybenzoïque], the “activité vis-à-vis du récepteur 5-HT₄” value at récepteur 5-HT₄ [2] is listed as “le plus actif”.
